Assay: Testing of lysozyme amount for efficacy (method not described)
Settings: 0.08 g lysozyme per kg of composition

lysozyme
lowest amount exhibiting some efficacy: 80 ppm

Reference: patent US20210368788A1, “METHODS FOR USING ANTIMICROBIAL COMPOSITIONS” (Next Science IP Holdings Pty Ltd, priority 2016, published 2021)
